{"source": "patent US20120201762A1", "about": "“ORAL CARE COMPOSITION” (COLGATE-PALMOLIVE COMPANY, priority 2009, published 2012)", "key": {"VSC in whole saliva [1]": {"system": "VSC in whole saliva", "assay": "Reduction of VSC in whole saliva incubated overnight with cysteine and an amino acid (GC)", "details": "for VSC Reduction (%): relative to saliva and cysteine alone, 10% of 0.1% amino acid solution added to 50% whole saliva, overnight incubation; for Effect on VSC in saliva (in words): whole saliva with cysteine", "experimental": "The effect of serine and other amino acids on VSC was tested. Whole saliva was incubated overnight with cysteine and an additional amino acid selected from serine, proline, tyrosine, glycine, aspargine, glutamic acid, and histidine. In this experiment, 10% of 0.1% amino acid solution was added to 50% whole saliva. GC measurements were made for VSC."}, "VSC in whole saliva [2]": {"system": "VSC in whole saliva", "assay": "Headspace VSC in whole saliva incubated with zinc lactate with and without serine (GC)", "details": "zinc lactate 0.16%", "experimental": "The effect of zinc lactate and serine on VSC was tested. Whole saliva with tryptophan (0.14%), zinc lactate (0.16%), and when necessary, serine (0.42%), was incubated overnight at 37° C. After 24 h, the samples were allowed to cool to 25° C. The samples were then quantified for headspace VSC using a GC."}, "indole in whole saliva [3]": {"system": "indole in whole saliva", "assay": "Indole production in whole saliva incubated with tryptophan, zinc lactate with and without serine (GC)", "details": "for Indole (ppm): serine 0.42% where present, whole saliva with tryptophan 0.14%, overnight at 37° C.", "experimental": "The effect of zinc lactate and serine on indole was tested. Whole saliva with tryptophan (0.14%), various concentrations of zinc lactate, and when necessary, serine (0.42%), was incubated overnight at 37° C. After 24 h, the samples were allowed to cool to 25° C. The samples were extracted with hexanes (2 mL) and the organic layer (1 mL) was used for GC quantification."}, "indole in whole saliva [4]": {"system": "indole in whole saliva", "assay": "Reduction of indole in whole saliva incubated with tryptophan and serine (hexanes extraction, GC)", "details": "whole saliva with tryptophan 0.14%; for Area Under the Curve (AUC), indole by GC: overnight at 37° C., control without serine 642403", "experimental": "The effect of serine on indole was tested. Whole saliva with tryptophan (0.14%) and various concentrations of serine was incubated overnight at 37° C. After 24 h, the samples were allowed to cool to 25° C. The samples were extracted with hexanes and the organic layer was used for GC quantification."}}, "data": [{"molecule": "N[C@@H](CCC(=O)O)C(=O)O", "note": "[Glutamic acid, glutamic acid]", "values": [{"measurement": "VSC Reduction (%)", "setting": "VSC in whole saliva [1]", "value": "−5.2", "unit": "%"}]}, {"molecule": "CC(O)C(=O)[O-].CC(O)C(=O)[O-].[Zn+2]", "note": "(stereo not shown) [Zinc Lactate, zinc lactate]", "values": [{"measurement": "VSC (ppb)", "setting": "VSC in whole saliva [2]; headspace VSC, whole saliva with tryptophan 0.14%, serine 0.42% where present, overnight at 37° C.", "value": 109.25, "unit": "ppb"}, {"measurement": "Indole (ppm)", "setting": "indole in whole saliva [3]; zinc lactate 0.09%", "value": 9.99, "unit": "ppm"}, {"measurement": "Indole (ppm)", "setting": "indole in whole saliva [3]; zinc lactate 0.16%", "value": 5.09, "unit": "ppm"}, {"measurement": "Indole (ppm)", "setting": "indole in whole saliva [3]; zinc lactate 0.23%", "value": 4.71, "unit": "ppm"}]}, {"molecule": "N[C@@H](Cc1ccc(O)cc1)C(=O)O", "note": "[Tyrosine, tyrosine]", "values": [{"measurement": "VSC Reduction (%)", "setting": "VSC in whole saliva [1]", "value": 0.06, "unit": "%"}]}, {"molecule": "NCC(=O)O", "note": "[Glycine, glycine]", "values": [{"measurement": "VSC Reduction (%)", "setting": "VSC in whole saliva [1]", "value": 14, "unit": "%"}]}, {"molecule": "NC(=O)C[C@H](N)C(=O)O", "note": "[Asparagine]", "values": [{"measurement": "VSC Reduction (%)", "setting": "VSC in whole saliva [1]", "value": "−2.14", "unit": "%"}]}, {"molecule": "O=C(O)[C@@H]1CCCN1", "note": "[Proline, proline]", "values": [{"measurement": "VSC Reduction (%)", "setting": "VSC in whole saliva [1]", "value": 6.99, "unit": "%"}]}, {"molecule": "N[C@@H](CO)C(=O)O", "note": "[Serine, (2S)-2-amino-3-hydroxypropanoic acid]", "values": [{"measurement": "VSC Reduction (%)", "setting": "VSC in whole saliva [1]", "value": 36.56, "unit": "%"}, {"measurement": "Effect on VSC in saliva (in words)", "setting": "VSC in whole saliva [1]", "value": "greatest percent reduction of VSC"}, {"measurement": "Effect on VSC in saliva (in words)", "setting": "VSC in whole saliva [1]; listed as serine", "value": "able to reduce VSC in saliva"}, {"measurement": "Effect of serine added to zinc lactate on VSC production (in words)", "setting": "VSC in whole saliva [2]; serine 0.42%", "value": "enhances the effect of zinc lactate and reduces VSC production"}, {"measurement": "Effect of serine added to zinc lactate on indole production (in words)", "setting": "indole in whole saliva [3]; various concentrations of zinc lactate, serine 0.42%", "value": "enhances the effect of zinc lactate and reduces indole production"}, {"measurement": "Area Under the Curve (AUC), indole by GC", "setting": "indole in whole saliva [4]; serine 0.21%", "value": 584720}, {"measurement": "Area Under the Curve (AUC), indole by GC", "setting": "indole in whole saliva [4]; serine 0.42%", "value": 532053}, {"measurement": "Area Under the Curve (AUC), indole by GC", "setting": "indole in whole saliva [4]; serine 0.84%", "value": 542136}, {"measurement": "Effect on amount of indole in saliva (in words)", "setting": "indole in whole saliva [4]", "value": "able to reduce amount of indole in saliva"}]}, {"molecule": "N[C@@H](Cc1c[nH]cn1)C(=O)O", "note": "[Histidine, histidine]", "values": [{"measurement": "VSC Reduction (%)", "setting": "VSC in whole saliva [1]", "value": 1.36, "unit": "%"}]}]}
